The values that follow come from US7601850B2, “Phenyl-thiophene type vitamin D receptor modulators” (Eli Lilly and Company, priority 2002, dated 2009).

Series [1] can be described thus: Mouse hypercalcemia assay (six day, serum ionized calcium). The class given is in vivo. The procedure:
5. The Mouse Hypercalcemia test is described in the “Assay” section of the Description, infra.
4. The Mouse Hypercalcemia Assay
The Mouse Hypercalcemia Assay is a six day hypercalcemia test for toxicity and selectivity. Acceptable test results are levels greater than 300 μg/kg/day. Preferred assay results are levels greater than 1000 μg/kg/day.
(4) Materials and Method for The Mouse Hypercalcemia Assay:
Weanling, virus-antibody-free, five to six weeks old female DBF mice (Harlan, Indianapolis, Ind.) are used for all the studies. Animals are allowed to acclimate to local vivarium conditions for 2 days. […] The animals then are divided into groups with 4-5 mice per group. Different doses of test compounds prepared in 10% Ethanol and 90% sesame oil are administered to mice orally via gavage for 6 days. 1α-25(OH)2D3 0.5 μg/kg/d was also given to one group of mice as the positive control. Serum ionized calcium is evaluated at 6 hours after the last dosing under isoflurane anesthesia by Ciba-Corning Ca++/PH Analyzer, (Model 634, Chiron Diagnostics Corp., East Walpole, Mass.). Raw data of group differences is assessed by analysis of variance (ANOVA) using Fisher's protected least significant difference (PLSD) where the significance level was P<0.05.

The next series relates to rat osteocalcin promoter. Nature of the series: OCN (osteocalcin) promoter assay in RG-15 (ROS 17/2.8) cells. The class given is cell-based. The method in brief: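 Rat osteoblast-like RG-15 (ROS 17/2.8) cells stably carry the rat osteocalcin promoter fused to luciferase. They were treated with compounds for 48 h in medium with 2% FBS and 0.01% DMSO. EC50 was derived from luciferase activity in cell lysates.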

For another series, the system named is KERtr cells. Nature of the series: Keratinocyte proliferation assay (BrdU incorporation). The class given is cell-based. The note with it: Homo sapiens, Keratinocyte, 72 h, KERtr human skin keratinocytes, 72 hr treatment, read-out: Kera. Prolif. IC50. The procedure: 6. The keratinocyte proliferation assay is described in the “Assay” section of the Description, infra.
5. The Keratinocyte Proliferation Assay
This Assay is indicative for the treatment of psoriasis.
(5) The Keratinocyte Proliferation Assay:
KERtr cells (Human skin keratinocyte transformed with a retrovirus vector, obtained from ATCC) were plated in 96-well flat-bottomed plates (3000 cells/well) in 100 µl keratinocyte serum free medium supplemented with bovine pituitary extract in the absence of EGF (Life Technologies, Rockville, Md.) and incubated at 37° C. for two days. The cells were treated with various concentrations of VDR ligands (ten-fold serial dilution from 10,000 nM to 0.1 nM in triplicate), dissolved in 100 µl keratinocyte serum free medium supplemented with bovine pituitary extract in the absence of EGF and incubated at 37° C. for 72 hr. […] Potency values (IC50) values were determined as the concentration (nM) of compound that elicited a half-maximal response.

Like-named read-outs stand apart in the source and are kept apart here.

Usually EC50 stands for the concentration at which the effect is half-maximal. Consider `CCC(CC)(c1ccc(OCC(=O)O)c(C)c1)c1cc(C)c(CCC(O)C(C)(C)C)s1` (single isomer, unassigned) [Ex. 33A, 3′-[5-(3-hydroxy-4,4-dimethylpentyl)-4-methylthiophen-2-yl]-3′-[4-(carboxylmethoxy)-3-methylphenyl]pentane], for which the “Mouse Hypercal” value in series [1] was >9000 µg/kg/day. In the series with rat osteocalcin promoter, the EC50 was found to be 43.5 nM.

A word on the IC50: it is the concentration at which inhibition is half-maximal. As for `CCC(CC)(c1ccc(OCC(=O)O)c(C)c1)c1cc(C)c(CCC(O)C(C)(C)C)s1` (single isomer, unassigned) [Ex. 33B, 3′-[5-(3-hydroxy-4,4-dimethylpentyl)-4-methylthiophen-2-yl]-3′-[4-(carboxylmethoxy)-3-methylphenyl]pentane], the “Mouse Hypercal” value in series [1] is 1000 µg/kg/day. Besides, the IC50 in the series with KERtr cells was determined as 22.5 nM. Moreover, in the series on rat osteocalcin promoter, the EC50 came out at 7.55 nM.

Consider `CCC(CC)(c1ccc(OCC(=O)Nc2nnn[nH]2)c(C)c1)c1cc(C)c(CCC(O)C(C)(C)C)s1` (single isomer, unassigned) [Ex. 34, 3′-[5-(3-hydroxy-4,4-dimethylpentyl)-4-methylthiophen-2-yl]-3-[4-(tetrazol-5-yl-aminocarbonylmethoxy)-3-methylphenyl]pentane], for which the “Mouse Hypercal” value in series [1] was 3000 µg/kg/day. In addition, in the series on rat osteocalcin promoter, the EC50 is 96.8 nM.

In the case of `CCC(CC)(c1ccc(OCC(=O)Nc2nnn[nH]2)c(C)c1)c1cc(C)c(CCC(O)C(C)(C)C)s1` (single isomer, unassigned) [Ex. 35, 3′-[5-(3-hydroxy-4,4-dimethylpentyl)-4-methylthiophen-2-yl]-3′-[4-(tetrazol-5-yl-aminocarbonylmethoxy)-3-methylphenyl]pentane], the “Mouse Hypercal” value in series [1] is 3000 µg/kg/day. The IC50 in the series on KERtr cells was 474 nM. The EC50 in the series on rat osteocalcin promoter was found to be 21.1 nM.

As to `CCC(CC)(c1ccc(OCC(O)C(C)(C)C)c(C)c1)c1cc(C)c(C(=O)Nc2nnn[nH]2)s1` (single isomer, unassigned) [Ex. 36, 3′-[4-(2-hydroxy-3,3-dimethylbutoxy)-3-methylphenyl]-3′-[5-(tetrazol-5-yl-aminocarbonyl)-4-methylthiophen-2-yl]pentane], in series [1], the “Mouse Hypercal” value was 2000 µg/kg/day. Besides, the EC50 with rat osteocalcin promoter turned out to be 67.9 nM.

Consider `CCC(CC)(c1ccc(OCC(O)C(C)(C)C)c(C)c1)c1cc(C)c(C(=O)N(C)OC)s1` (single isomer, unassigned) [Ex. 43, 5-{1-Ethyl-1-[4-(2-hydroxy-3,3-dimethyl-butyoxy)-3-methyl-phenyl]-propyl}-3methyl-thiophene-2-carboxylic acid methoxy-methyl-amide], for which the “Mouse Hypercal” value in series [1] was 1000 µg/kg/day. Besides, in the series with rat osteocalcin promoter (Rattus norvegicus), the EC50 turned out to be 19.7 nM.

For `CCC(CC)(c1ccc(OCC(O)C(C)(C)C)c(C)c1)c1cc(C)c(C(=O)N(C)OC)s1` (single isomer, unassigned) [Ex. 44, 5-{1-Ethyl-1-[4-(2-hydroxy-3,3-dimethyl-butyoxy)-3-methyl-phenyl]-propyl}-3methyl-thiophene-2-carboxylic acid methoxy-methyl-amide], in series [1], the “Mouse Hypercal” value is 1000 µg/kg/day. Also, the EC50 with rat osteocalcin promoter was found to be 30.4 nM.

`CCCc1cc(C(CC)(CC)c2ccc(C(=O)O)s2)ccc1OCC(O)C(C)(C)C` (single isomer, unassigned) [Ex. 94, 3′-[4-(2-hydroxy-3,3-dimethylbutoxy)-3-n-propylphenyl]-3′-[5-carboxy-thiophen-2-yl]pentane]: the “Mouse Hypercal” value in series [1] is 1000 µg/kg/day. Moreover, the EC50 in the series with rat osteocalcin promoter was determined as 4.05 nM.

Regarding `CCC(CC)(c1ccc(OCC(O)C(C)(C)C)c(C(C)C)c1)c1ccc(C(=O)O)s1` (single isomer, unassigned) [Ex. 97, 3′-[4-(2-hydroxy-3,3-dimethylbutoxy)-3-i-propylphenyl]-3′-[5-carboxy-thiophen-2-yl]pentane], the “Mouse Hypercal” value in series [1] is 3000 µg/kg/day. The EC50 with rat osteocalcin promoter (Rattus norvegicus) is 22.4 nM.

With `CCC(CC)(c1ccc(OCC(O)C(C)(C)C)c(C(C)C)c1)c1ccc(C(=O)O)s1` (single isomer, unassigned) [Ex. 98, 3′-[4-(2-hydroxy-3,3-dimethylbutoxy)-3-i-propylphenyl]-3′-[5-carboxy-thiophen-2-yl]pentane], in series [1], the “Mouse Hypercal” value is 4000 µg/kg/day. Also, the EC50 with rat osteocalcin promoter was determined as 15.8 nM.

As to `CCC(CC)(c1ccc(OCC(C)(O)C(C)(C)C)c(C)c1)c1ccc(C(=O)O)s1` (single isomer, unassigned) [Ex. 104, 3′-[4-(2-hydroxy-2,3,3-trimethylbutoxy)-3-methylphenyl]-3′-[5-carboxy-thiophen-2-yl]pentane], the “Mouse Hypercal” value in series [1] was 1000 µg/kg/day. In the series on rat osteocalcin promoter, the EC50 was 90.9 nM.

As for `CCCc1cc(C(CC)(CC)c2ccc(C(=O)N[C@@H](C)C(=O)O)s2)ccc1OCC(C)(O)C(C)(C)C` (single isomer, unassigned) [Ex. 114, d-3′-[4-(2-hydroxy-2,3,3-trimethylbutoxy)-3-n-propylphenyl]-3′-[5-(carboxy-1-ethylamino)carbonyl-thiophen-2-yl]pentane], in series [1], the “Mouse Hypercal” value was <300 µg/kg/day. Moreover, the EC50 in the series with rat osteocalcin promoter (Rattus norvegicus) stood at 0.28 nM.

On to `CCC(CC)(c1ccc(OCC(C)(O)C(C)(C)C)c(OC)c1)c1ccc(C(=O)NC(C)C(=O)O)s1` (single isomer, unassigned) [Ex. 116, d-3′-[4-(2-hydroxy-2,3,3-trimethylbutoxy)-3-methoxyphenyl]-3′-[5-(carboxy-1-ethylamino)carbonyl-thiophen-2-yl]pentane], for which the “Mouse Hypercal” value in series [1] was >3000 µg/kg/day. Further, the EC50 with rat osteocalcin promoter (Rattus norvegicus) is 16.9 nM.

Regarding `CCC(CC)(c1ccc(OCC(O)CO)c(C)c1)c1ccc(OCC(O)C(C)(C)C)c(C)c1` (centres unmarked) [BB, 3-(4-{1-Ethyl-1-[4-(2-hydroxy-3,3-dimethyl-butoxy)-3-methyl-phenyl]-10 propyl}-2-methyl-phenoxy)-propane-1,2-diol, reference compound], the “Mouse Hypercal μg/Kg/d” value in series [1] was “>=20 μg/Kg/d”.

Regarding `CCC(CC)(c1ccc(OCC(=O)C(C)(C)C)c(C)c1)c1ccc(OC[C@H](O)C(C)(C)C)c(C)c1` [EE, reference compound], the “Mouse Hypercal” value in series [1] was 1000 µg/kg/day.

`CCC(CC)(c1ccc(OCC(=O)C(C)(C)C)c(C)c1)c1cc(C)c(C(=O)N(C)OC)s1` [Ex. 45, 5-{1-[4-(3,3-dimethyl-2-oxo-butyoxy)-3-methyl-phenyl]-1-ethyl-propyl}-3methyl-thiophene-2-carboxylic acid methoxy-methyl-amide]: the “Mouse Hypercal” value in series [1] was >1500 µg/kg/day. Moreover, the EC50 in the series with rat osteocalcin promoter (Rattus norvegicus) was determined as 41 nM.

Regarding `CCC(CC)(c1ccc(OCC(=O)C(C)(C)C)c(C)c1)c1cc(C)c(C(=O)NCC(=O)O)s1` [Ex. 50], the “Mouse Hypercal” value in series [1] was >3000 µg/kg/day. Further, the EC50 in the series with rat osteocalcin promoter (Rattus norvegicus) is 21.6 nM.

Turning to `CCC(CC)(c1ccc(OCC(O)C(C)(C)C)c(C(C)C)c1)c1ccc(C(=O)O)s1` (centres unmarked) [Ex. 92, 3′-[4-(2-Hydroxy-3,3-dimethylbutoxy)-3-(1-methylethyl)phenyl]-3′-[5-carboxy-thiophen-2-yl]pentane], in series [1], the “Mouse Hypercal” value was 1000 µg/kg/day. In the series with rat osteocalcin promoter (Rattus norvegicus), the EC50 turned out to be 75.3 nM.

For the molecule `CCc1cc(C(CC)(CC)c2ccc(C(=O)O)s2)ccc1OCC(O)C(C)(C)C` (centres unmarked) [Ex. 99, 3′-[4-(2-hydroxy-3,3-dimethylbutoxy)-3-ethylphenyl]-3′-[5-carboxy-thiophen-2-yl]pentane], the “Mouse Hypercal” value in series [1] was >1000 µg/kg/day. The EC50 in the series on rat osteocalcin promoter (Rattus norvegicus) is 38.1 nM.

Consider `CCC(CC)(c1ccc(OCC(C)(O)C(C)(C)C)c(C)c1)c1ccc(C(=O)O)s1` (centres unmarked) [Ex. 103, 3′-[4-(2-hydroxy-2,3,3-trimethylbutoxy)-3-methylphenyl]-3′-[5-carboxy-thiophen-2-yl]pentane], for which, in series [1], the “Mouse Hypercal” value is 3000 µg/kg/day. For the same molecule, in the series on rat osteocalcin promoter (Rattus norvegicus), the concentration for a half-maximal effect (EC50) is 102 nM.

For the molecule `CCC(CC)(c1ccc(CCC(O)C(C)(C)C)c(C)c1)c1cc(C)c(C(=O)NCC(=O)O)s1` (centres unmarked) [Ex. 177, [(5-{1-Ethyl-1-[4-(3-hydroxy-4,4-dimethyl-pentyl)-3-methyl-phenyl]-propyl}-3-methyl-thiophene-2-carbonyl)-amino]-acetic acid], the IC50 with KERtr cells turned out to be 81.3 nM. Moreover, the EC50 with rat osteocalcin promoter (Rattus norvegicus) turned out to be 46 nM.

As for `CCC(CC)(c1ccc(CCC(O)C(C)(C)C)c(C)c1)c1cc(C)c(S(=O)(=O)NCC(=O)O)s1` (centres unmarked) [Ex. 179, (5-{1-Ethyl-1-[4-(3-hydroxy-4,4-dimethyl-pentyl)-3-methyl-phenyl]-propyl}-3-methyl-thiophene-2-sulfonylamino)-acetic acid], the IC50 with KERtr cells turned out to be 221 nM. Besides, in the series on rat osteocalcin promoter (Rattus norvegicus), the EC50 amounted to 27.9 nM.
